Experimental data taken from patent US7342090B1, “Fab-epitope complex from the HIV-1 cross-neutralizing monoclonal antibody 2F5” (University of Toronto, priority 1999, dated 2008).
Square brackets hold non-standard residues; d marks the D form. Ends that are not written are not given here. Dap = NC[C@H](N)C(=O)O

System: monoclonal antibody 2F5
Assay: Immuno-complex formation of constrained peptides with monoclonal antibody 2F5
Format: binding, human
Settings: subsequently co-crystallized with the Fab′ fragment

Sequence of monoclonal antibody 2F5 (as listed by the source, other chains not shown): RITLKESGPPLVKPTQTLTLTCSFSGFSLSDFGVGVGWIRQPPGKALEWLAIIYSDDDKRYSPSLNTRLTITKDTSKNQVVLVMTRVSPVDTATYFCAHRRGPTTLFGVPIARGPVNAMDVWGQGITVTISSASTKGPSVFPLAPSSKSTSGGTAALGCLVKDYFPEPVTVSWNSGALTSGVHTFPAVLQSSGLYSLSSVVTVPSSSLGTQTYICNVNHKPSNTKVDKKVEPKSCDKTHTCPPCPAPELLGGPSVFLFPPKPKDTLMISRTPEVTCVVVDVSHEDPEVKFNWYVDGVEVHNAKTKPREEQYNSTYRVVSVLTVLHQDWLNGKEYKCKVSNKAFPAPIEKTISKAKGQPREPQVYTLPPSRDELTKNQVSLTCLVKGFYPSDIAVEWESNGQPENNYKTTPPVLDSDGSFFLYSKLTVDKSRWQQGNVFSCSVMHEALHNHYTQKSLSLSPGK

Row | Substance | formation of an immuno-complex with monoclonal antibody 2F5
1 | ECDKWCS [CLP-634] | capable of forming an immuno-complex
2 | E[Dap]DKWES [CLP-1309] | capable of forming an immuno-complex
